For this test, the system named is MCF-7 cells. Nature of the test: MTT cytotoxicity assay on MCF-7 cells. The test is classed as cell-based. The following applies: Homo sapiens, MCF7; for viability at 1.25 µM: MCF-7, 1.25 µM; for viability at 1.25 µM / viability at 2.5 µM / viability at 5 µM / viability at 10 µM / viability at 20 µM / viability at 40 µM / viability at 80 µM / viability at 160 µM: Table S2; for viability at 2.5 µM: MCF-7, 2.5 µM; for viability at 5 µM: MCF-7, 5 µM; for viability at 10 µM: MCF-7, 10 µM; for viability at 20 µM: MCF-7, 20 µM; for viability at 40 µM: MCF-7, 40 µM; for viability at 80 µM: MCF-7, 80 µM; for viability at 160 µM: MCF-7, 160 µM; for IC50: MTT, 24 h treatment, mean of three experiments ± SEM, read-out: IC50 (µM) MCF-7. (Formazan colour is commonly taken as a measure of viable cells.)

By viability is commonly meant a per cent measure of how many cells are alive, often set against a control. Read a low viability as more harm to the cells. The IC50 is the midpoint of a concentration-inhibition curve.

For the compound `O=C1Nc2ccc(Cl)cc2C1=Nc1ccc2nc[nH]c(=O)c2c1` [Compound 9, 6-(5-Chloro-2-oxo-1,2-dihydro-indol-3-ylideneamino)-3H-quinazolin-4-one], the viability at 1.25 µM came to 90.5 ± 7.8%, the viability at 2.5 µM came out at 72.8 ± 6.3%, the viability at 5 µM came to 64.1 ± 4.5% and the viability at 10 µM is 49 ± 2%. Moreover, the viability at 20 µM turned out to be 34.4 ± 0.2%, the viability at 40 µM came out at 18.2 ± 1%, the viability at 80 µM is 14.8 ± 1.3% and the viability at 160 µM came to 8.7 ± 1.2%. In addition, the IC50 worked out at 7.54 ± 0.71 µM.

The compound `O=C1Nc2ccc(Cl)cc2C1=Nc1ccc(-c2nc3ccccc3c(=O)[nH]2)cc1` [Compound 20, 2-[4-(5-Chloro-2-oxo-1,2-dihydro-indol-3-ylideneamino)-phenyl]-3H-quinazolin-4-one] showed a viability at 1.25 µM of 92.4 ± 5.7%, a viability at 2.5 µM of 84.3 ± 4.8%, a viability at 5 µM of 76.7 ± 4.2% and a viability at 10 µM of 67.9 ± 3.4%. The viability at 20 µM was 47.1 ± 3%, the viability at 40 µM was found to be 24.6 ± 1.9%, the viability at 80 µM came out at 7.77 ± 0.9% and the viability at 160 µM amounted to 4.1 ± 0.1%. For the same compound, the IC50 is 5.28 ± 0.22 µM.
